Laboratory results published in the supplement of paper PMC10307832.

Key:
Assay in all cases: relative viability (nuclei count vs DMSO), 5 days (fraction); higher = more cells survive
GSK126 = compound: CC[C@H](C)N1C=C(C2=C(C=C(C=C21)C3=CN=C(C=C3)N4CCNCC4)C(=O)NCC5=C(C=C(NC5=O)C)C)C [GSK126]
Summary of the method: (§1)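 Viability here means nuclei in treated wells divided by nuclei in vehicle wells, reported as the median across plates. Only plates with control CV below 25% and at least one doubling passed. Lung cancer cell lines in 1536-well plates were exposed to five √10-spaced library-drug doses for 5 days and counted from 4× Hoechst images in MetaXpress.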

Carboplatin = compound: C1CC(C1)(C(=O)O)C(=O)O.[NH2-].[NH2-].[Pt+2] [Carboplatin]
Summary of the method: as §1

MLN4924 = compound: NS(=O)(=O)OC[C@@H]1C[C@@H](n2ccc3c(N[C@H]4CCc5ccccc54)ncnc32)C[C@@H]1O [MLN4924]
Summary of the method: as §1

MLN4924 + Bortezomib = compound: NS(=O)(=O)OC[C@@H]1C[C@@H](n2ccc3c(N[C@H]4CCc5ccccc54)ncnc32)C[C@@H]1O [MLN4924] + CC(C)C[C@H](NC(=O)[C@H](Cc1ccccc1)NC(=O)c1cnccn1)B(O)O [Bortezomib] (partner 0.002 µM)
Summary of the method: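 A single step with final 0.05% Triton X-100, 1% formaldehyde and 1 ug/ml Hoechst fixed the cells and stained nuclei 5 days after treatment. Lung cancer cell lines in 1536-well plates had been treated by pin tool the day after seeding with one drug alone or a fixed anchor-drug dose plus five library-drug doses (not always all listed) in √10 steps, and nuclei were counted on 4× images. Relative viability is the ratio of nuclei in treated wells to nuclei in vehicle wells, taken as the median of duplicate plates.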

UMC-11
relative viability (GSK126; 0.08 µM): 1.09 | relative viability (GSK126; 0.253 µM): 0.982 | relative viability (GSK126; 0.8 µM): 1.02 | relative viability (GSK126; 2.53 µM): 1.01 | relative viability (GSK126; 8 µM): 1.11 | relative viability (Carboplatin; 0.08 µM): 0.982 | relative viability (Carboplatin; 0.253 µM): 0.996 | relative viability (Carboplatin; 0.8 µM): 1.01 | relative viability (Carboplatin; 2.53 µM): 0.923 | relative viability (Carboplatin; 8 µM): 0.767 | relative viability (MLN4924; 0.04 µM): 0.678 | relative viability (MLN4924; 0.1265 µM): 0.463 | relative viability (MLN4924; 0.4 µM): 0.383 | relative viability (MLN4924; 1.265 µM): 0.189 | relative viability (MLN4924; 4 µM): 0.19 | relative viability (MLN4924 + Bortezomib; first compound 0.04 µM): 0.529 | relative viability (MLN4924 + Bortezomib; first compound 0.1265 µM): 0.301 | relative viability (MLN4924 + Bortezomib; first compound 0.4 µM): 0.269 | relative viability (MLN4924 + Bortezomib; first compound 1.265 µM): 0.1 | relative viability (MLN4924 + Bortezomib; first compound 4 µM): 0.0977
